The results in this text go back to US9487510B2, “Substituted heterocyclic acetamides as kappa opioid receptor (KOR) agonists” (Dr. Reddy's Laboratories Ltd., priority 2012, dated 2016).

The pEC50 is −log10 of the EC50, conventionally taken in molar units. A low value points to a large EC50.

pEC50: −log10 of the molar value. Counter-ions that a name gives are not always drawn.

The target in the assay is human KOR receptor (Homo sapiens, UniProt P41145). Put plainly: IP-One HTRF assay, potency of KOR agonists, dose-response in transiently transfected COS-7 cells. Format: cell-based.
human KOR receptor, sequence (P41145 whole entry): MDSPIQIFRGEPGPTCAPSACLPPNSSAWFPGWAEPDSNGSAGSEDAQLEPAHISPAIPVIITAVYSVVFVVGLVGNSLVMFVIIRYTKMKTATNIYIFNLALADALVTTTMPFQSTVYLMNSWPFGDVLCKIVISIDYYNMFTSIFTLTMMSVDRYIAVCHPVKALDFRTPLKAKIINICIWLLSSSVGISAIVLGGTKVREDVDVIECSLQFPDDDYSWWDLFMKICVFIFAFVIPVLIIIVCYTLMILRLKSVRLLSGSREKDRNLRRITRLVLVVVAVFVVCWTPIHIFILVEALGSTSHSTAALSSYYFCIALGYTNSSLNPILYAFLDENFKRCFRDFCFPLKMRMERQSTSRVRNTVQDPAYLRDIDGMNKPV

In the case of `O=C1COc2ccc(CC(=O)N[C@H](CN3CC[C@H](O)C3)c3ccccc3)cc2N1` [Example 2, N-[(1S)-2-[(3S)-3-hydroxypyrrolidin-1-yl]-1-phenylethyl]-2-(3-oxo-3,4-dihydro-2H-1,4-benzoxazin-6-yl)acetamide], the pEC50 is ≥ 7.30.
Then `CN(C(=O)Cc1ccc2oc(=O)[nH]c2c1)[C@H](CN1CC[C@H](O)C1)c1cccc(C(=O)O)c1` [Example 176, 3-((S)-2-((S)-3-hydroxypyrrolidin-1-yl)-1-(N-methyl-2-(2-oxo-2,3-dihydrobenzo[d]oxazol-5-yl)acetamido)ethyl)benzoic acid], with ≥ 7.30; and `CN(C(=O)Cc1ccc2c(c1)NC(=O)C2)[C@H](CN1CC[C@H](F)C1)c1cccc(OCC(=O)O)c1` [Example 29, 2-(3-((S)-2-((S)-3-fluoropyrrolidin-1-yl)-1-(N-methyl-2-(2-oxoindolin-6-yl)acetamido)ethyl)phenoxy)acetic acid], with ≥ 7.30; and `CN(C(=O)Cc1ccc2c(c1)NC(=O)C2)C(CN1CC[C@H](O)C1)c1cccc(OCC(=O)O)c1` (stereo partly drawn) [Example 95, (S)-2-(3-(2-(3-hydroxypyrrolidin-1-yl)-1-(N-methyl-2-(2-oxoindolin-6-yl)acetamido)ethyl)phenoxy) acetic acid hydrochloride], with ≥ 7.30.
The value for `CN(C)C(=O)c1cccc([C@@H](CN2CC[C@H](O)C2)N(C)C(=O)Cc2ccc3sc(=O)[nH]c3c2)c1` [Example 40, 3-((S)-2-((S)-3-hydroxypyrrolidin-1-yl)-1-(N-methyl-2-(2-oxo-2,3-dihydrobenzo[d]thiazol-5-yl)acetamido)ethyl)-N,N-dimethylbenzamide-2,2,2-trifluoroacetate] was ≥ 7.30; that for `CN(C(=O)Cc1ccc2sc(=O)[nH]c2c1)[C@H](CN1CC[C@H](O)C1)c1cccc(-c2noc(C(F)(F)F)n2)c1` [Example 184, N-((S)-2-((S)-3-hydroxypyrrolidin-1-yl)-1-(3-(5-(trifluoromethyl)-1,2,4-oxadiazol-3-yl)phenyl)ethyl)-N-methyl-2-(2-oxo-2,3-dihydrobenzo[d]thiazol-5-yl)acetamide] was ≥ 7.30.
For the molecule `CCC#Cc1cccc([C@@H](CN2CC[C@H](O)C2)N(C)C(=O)Cc2ccc3ncc(=O)[nH]c3c2)c1` [Example 206, N-((S)-1-(3-(but-1-yn-1-yl)phenyl)-2-((S)-3-hydroxypyrrolidin-1-yl)ethyl)-N-methyl-2-(3-oxo-3,4-dihydroquinoxalin-6-yl)acetamide], the pEC50 was ≥ 7.30.
The value for `CN(C(=O)Cc1ccc2ncc(=O)[nH]c2c1)[C@H](CN1CC[C@H](O)C1)c1cccc(C(N)=O)c1` [Example 164, 3-((S)-2-((S)-3-hydroxypyrrolidin-1-yl)-1-(N-methyl-2-(3-oxo-3,4-dihydroquinoxalin-6-yl)acetamido)ethyl)benzamide] was ≥ 7.30.
`CN(C(=O)Cc1ccc2c(c1)NC(=O)CS2)[C@H](CN1CC[C@H](O)C1)c1cccc(C(F)(F)F)c1` [Example 132, N-((S)-2-((S)-3-hydroxypyrrolidin-1-yl)-1-(3-(trifluoromethyl)phenyl)ethyl)-N-methyl-2-(3-oxo-3,4-dihydro-2H-benzo[b][1,4]thiazin-6-yl)acetamide]: the pEC50 was ≥ 7.30.
Take `CCC#Cc1cccc([C@@H](CN2CC[C@H](O)C2)N(C)C(=O)Cc2ccc3c(c2)NC(=O)C3)c1` [Example 204, N-((S)-1-(3-(but-1-yn-1-yl)phenyl)-2-((S)-3-hydroxypyrrolidin-1-yl)ethyl)-N-methyl-2-(2-oxoindolin-6-yl)acetamide]: the pEC50 was ≥ 7.30.
The value for `O=C(O)COc1cccc(C(CN2CC[C@H](O)C2)NC(=O)Cc2ccc3c(c2)NC(=O)C3)c1` (mixture of isomers) [Example 100, (S)-2-(3-(2-(3-hydroxypyrrolidin-1-yl)-1-(2-(2-oxoindolin-6-yl)acetamido)ethyl)phenoxy)acetic acid hydrochloride] was ≥ 7.30.
Regarding `O=C1CS(=O)(=O)c2ccc(CC(=O)N[C@H](CN3CC[C@H](O)C3)c3ccccc3)cc2N1` [Example 122, 2-(1,1-dioxido-3-oxo-3,4-dihydro-2H-benzo[b][1,4]thiazin-6-yl)-N-((S)-2-((S)-3-hydroxypyrrolidin-1-yl)-1-phenylethyl)acetamide], the pEC50 is ≥ 7.30.
Then `CN(C(=O)Cc1ccc2oc(=O)n(CC(=O)O)c2c1)[C@H](CN1CC[C@H](O)C1)c1ccccc1` [Example 86], with ≥ 7.30; and `CN(C(=O)Cc1ccc2c(c1)NC(=O)CS2)[C@H](CN1CC[C@H](O)C1)c1cccc(F)c1` [Example 133, N-((S)-1-(3-fluorophenyl)-2-((S)-3-hydroxypyrrolidin-1-yl)ethyl)-N-methyl-2-(3-oxo-3,4-dihydro-2H-benzo[b][1,4]thiazin-6-yl)acetamide], with ≥ 7.30.
With `CN(C)C(=O)c1cccc([C@@H](CN2CC[C@H](O)C2)N(C)C(=O)Cc2ccc3c(c2)NC(=O)C3)c1` [Example 207, 3-((S)-2-((S)-3-hydroxypyrrolidin-1-yl)-1-(N-methyl-2-(2-oxoindolin-6-yl)acetamido)ethyl)-N,N-dimethylbenzamide], the pEC50 was ≥ 7.30.
Then `CN(C(=O)Cc1ccc2c(c1)NC(=O)CS2(=O)=O)[C@H](CN1CC[C@H](O)C1)c1cccc(F)c1` [Example 124, 2-(1,1-dioxido-3-oxo-3,4-dihydro-2H-benzo[b][1,4]thiazin-6-yl)-N-((S)-1-(3-fluorophenyl)-2-((S)-3-hydroxypyrrolidin-1-yl)ethyl)-N-methylacetamide], with ≥ 7.30.
As to `Cc1ncc(-c2cccc([C@@H](CN3CC[C@H](O)C3)N(C)C(=O)Cc3ccc4c(c3)NC(=O)C4)c2)s1` [Example 219, N-((S)-2-((S)-3-hydroxypyrrolidin-1-yl)-1-(3-(2-methylthiazol-5-yl)phenyl)ethyl)-N-methyl-2-(2-oxoindolin-6-yl)acetamide], the pEC50 is ≥ 7.30.
As to `Cc1nc(-c2cccc([C@@H](CN3CC[C@H](O)C3)N(C)C(=O)Cc3ccc4ncc(=O)[nH]c4c3)c2)no1` [Example 194, N-((S)-2-((S)-3-hydroxypyrrolidin-1-yl)-1-(3-(5-methyl-1,2,4-oxadiazol-3-yl)phenyl)ethyl)-N-methyl-2-(3-oxo-3,4-dihydroquinoxalin-6-yl)acetamide], the pEC50 was ≥ 7.30.
The value for `Cc1nc(-c2cccc([C@@H](CN3CC[C@H](O)C3)N(C)C(=O)Cc3ccc4c(c3)NC(=O)C4)c2)cs1` [Example 220, N-((S)-2-((S)-3-hydroxypyrrolidin-1-yl)-1-(3-(2-methylthiazol-4-yl)phenyl)ethyl)-N-methyl-2-(2-oxoindolin-6-yl)acetamide] was ≥ 7.30; that for `CN(C(=O)Cc1ccc2c(c1)NC(=O)CS2(=O)=O)[C@H](CN1CC[C@H](O)C1)c1cccc(-c2ncon2)c1` [Example 212, N-((S)-1-(3-(1,2,4-oxadiazol-3-yl)phenyl)-2-((S)-3-hydroxypyrrolidin-1-yl)ethyl)-2-(1,1-dioxido-3-oxo-3,4-dihydro-2H-benzo[b][1,4]thiazin-6-yl)-N-methylacetamide2,2,2-trifluoroacetate] was ≥ 7.30.
Then `CN(C(=O)Cc1ccc2ncc(=O)[nH]c2c1)[C@H](CN1CC[C@H](O)C1)c1cc(F)cc(C#N)c1` [Example 200, N-((S)-1-(3-cyano-5-fluorophenyl)-2-((S)-3-hydroxypyrrolidin-1-yl)ethyl)-N-methyl-2-(3-oxo-3,4-dihydroquinoxalin-6-yl)acetamide], with ≥ 7.30.
